Assay results from US8802597B2, “Herbicidal pyrimidines” (E I du Pont de Nemours and Company, priority 2003, dated 2014).

What was measured:
Format in all cases: in vivo
[1] = test system: Surinam grass (Brachiaria decumbens); experiment: Test B pre/postemergence
How it was run: (§1)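 Visual injury scored 0 (no effect) to 100 (complete control) versus untreated controls after 13 to 15 days in greenhouse. Treatments were pre- or postemergence sprays of surfactant-containing solvent formulations; postemergence plants at 1- to 4-leaf stage, 2 to 18 cm.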

[2] = test system: barnyardgrass (Echinochloa crus-galli); experiment: Test B pre/postemergence
How it was run: as §1

[3] = test system: cocklebur (Xanthium strumarium); experiment: Test B pre/postemergence
How it was run: as §1

corn (Zea mays) = experiment: Test B pre/postemergence
How it was run: as §1

[4] = test system: crabgrass (Digitaria sanguinalis); experiment: Test B pre/postemergence
How it was run: as §1

[5] = test system: giant foxtail (Setaria faberii); experiment: Test B pre/postemergence
How it was run: as §1

[6] = test system: lambsquarters (Chenopodium album); experiment: Test B pre/postemergence
How it was run: as §1

[7] = test system: morningglory (Ipomoea coccinea); experiment: Test B pre/postemergence
How it was run: as §1

[8] = test system: pigweed (Amaranthus retroflexus); experiment: Test B pre/postemergence
How it was run: as §1

[9] = test system: velvetleaf (Abutilon theophrasti); experiment: Test B pre/postemergence
How it was run: as §1

[10] = test system: wheat (Triticum aestivum); experiment: Test B pre/postemergence
How it was run: as §1

[11] = test system: blackgrass (Alopecurus myosuroides); experiment: Test B postemergence; settings: for Blackgrass plant response rating: 125 g ai/ha, scale 0 to 100 (0 no effect, 100 complete control); for Plant response rating, Blackgrass: 500 g ai/ha, scale 0 to 100
How it was run: as §1

wild oat (Avena fatua) = experiment: Test B postemergence; settings: for Oat, Wild plant response rating: 125 g ai/ha, scale 0 to 100 (0 no effect, 100 complete control); for Plant response rating, Oat, Wild: 500 g ai/ha, scale 0 to 100
How it was run: as §1

[12] = test system: barnyardgrass (Echinochloa crus-galli); experiment: Test B flooded paddy test; settings: Flood, 1000 g ai/ha; scale 0 (no effect) to 100 (complete control)
How it was run: (§2)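 Visual injury scoring (0 = no effect, 100 = complete control) versus controls made 13 to 15 days after treatment in the greenhouse. Test species were grown in flooded paddy to the 2-leaf stage: rice, barnyardgrass, umbrella sedge, duck salad.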

[13] = test system: duck salad (Heteranthera limosa); experiment: Test B flooded paddy test; settings: Flood, 1000 g ai/ha; scale 0 to 100
How it was run: as §2

rice (Oryza sativa) = experiment: Test B flooded paddy test; settings: Flood, 1000 g ai/ha; scale 0 to 100
How it was run: as §2

[14] = test system: umbrella sedge (Cyperus difformis); experiment: Test B flooded paddy test; settings: Flood, 1000 g ai/ha; scale 0 to 100
How it was run: as §2

[15] = Postemergence, 125 g ai/ha, scale 0 to 100 (0 no effect, 100 complete control)
[16] = Postemergence, 500 g ai/ha, scale 0 to 100
[17] = Preemergence, 125 g ai/ha, scale 0 to 100 (0 no effect, 100 complete control)
[18] = Preemergence, 500 g ai/ha, scale 0 to 100 (0 no effect, 100 complete control)

## Nc1nc(C2CC2)nc(C=NO)c1Br [Compound 27]
[1]; [15]
  Surinam Grass plant response rating: 0
[1]; [16]
  Plant response rating, Surinam Grass: 0
[1]; [17]
  Plant response rating, Surinam Grass: 0
[1]; [18]
  Surinam Grass plant response rating: 70
[2]; [15]
  Barnyardgrass plant response rating: 0
[2]; [16]
  Plant response rating, Barnyardgrass: 0
[2]; [17]
  Plant response rating, Barnyardgrass: 30
[2]; [18]
  Barnyardgrass plant response rating: 60
[3]; [15]
  Cocklebur plant response rating: 100
[3]; [16]
  Plant response rating, Cocklebur: 100
[3]; [17]
  Plant response rating, Cocklebur: 80
[3]; [18]
  Cocklebur plant response rating: 90
Corn (Zea mays); [15]
  Corn plant response rating: 0
Corn (Zea mays); [16]
  Plant response rating, Corn: 20
Corn (Zea mays); [17]
  Plant response rating, Corn: 10
Corn (Zea mays); [18]
  Corn plant response rating: 50
[4]; [15]
  Crabgrass plant response rating: 10
[4]; [16]
  Plant response rating, Crabgrass: 10
[4]; [17]
  Plant response rating, Crabgrass: 30
[4]; [18]
  Crabgrass plant response rating: 70
[5]; [15]
  Foxtail, Giant plant response rating: 20
[5]; [16]
  Plant response rating, Foxtail, Giant: 30
[5]; [17]
  Plant response rating, Foxtail, Giant: 0
[5]; [18]
  Foxtail, Giant plant response rating: 40
[6]; [15]
  Lambsquarters plant response rating: 80
[6]; [16]
  Plant response rating, Lambsquarters: 90
[6]; [17]
  Plant response rating, Lambsquarters: 90
[6]; [18]
  Lambsquarters plant response rating: 100
[7]; [15]
  Morningglory plant response rating: 70
[7]; [16]
  Plant response rating, Morningglory: 90
[7]; [17]
  Plant response rating, Morningglory: 80
[7]; [18]
  Morningglory plant response rating: 90
[8]; [15]
  Pigweed plant response rating: 60
[8]; [16]
  Plant response rating, Pigweed: 70
[8]; [17]
  Plant response rating, Pigweed: 90
[8]; [18]
  Pigweed plant response rating: 100
[9]; [15]
  Velvetleaf plant response rating: 60
[9]; [16]
  Plant response rating, Velvetleaf: 70
[9]; [17]
  Plant response rating, Velvetleaf: 80
[9]; [18]
  Velvetleaf plant response rating: 90
[10]; [15]
  Wheat plant response rating: 20
[10]; [16]
  Plant response rating, Wheat: 30
[10]; [17]
  Plant response rating, Wheat: 10
[10]; [18]
  Wheat plant response rating: 50
[11]
  Blackgrass plant response rating: 30
  Plant response rating, Blackgrass: 30
Wild oat (Avena fatua)
  Oat, Wild plant response rating: 20
  Plant response rating, Oat, Wild: 30
[12]
  Plant response rating, Barnyardgrass: 0
[13]
  Plant response rating, Ducksalad: 60
Rice (Oryza sativa)
  Plant response rating, Rice: 20
[14]
  Plant response rating, Sedge, Umbrella: 60

## COC(=O)c1nc(C2CC2C)nc(N)c1Br (stereo not shown) [Compound 28]
[1]; [15]
  Surinam Grass plant response rating: 10
[1]; [16]
  Plant response rating, Surinam Grass: 50
[1]; [18]
  Surinam Grass plant response rating: 60
[2]; [15]
  Barnyardgrass plant response rating: 20
[2]; [16]
  Plant response rating, Barnyardgrass: 50
[2]; [17]
  Plant response rating, Barnyardgrass: 10
[2]; [18]
  Barnyardgrass plant response rating: 30
[3]; [15]
  Cocklebur plant response rating: 90
[3]; [16]
  Plant response rating, Cocklebur: 100
[3]; [17]
  Plant response rating, Cocklebur: 80
[3]; [18]
  Cocklebur plant response rating: 90
Corn (Zea mays); [15]
  Corn plant response rating: 0
Corn (Zea mays); [16]
  Plant response rating, Corn: 0
Corn (Zea mays); [17]
  Plant response rating, Corn: 0
Corn (Zea mays); [18]
  Corn plant response rating: 0
[4]; [15]
  Crabgrass plant response rating: 30
[4]; [16]
  Plant response rating, Crabgrass: 50
[4]; [17]
  Plant response rating, Crabgrass: 70
[4]; [18]
  Crabgrass plant response rating: 80
[5]; [15]
  Foxtail, Giant plant response rating: 20
[5]; [16]
  Plant response rating, Foxtail, Giant: 40
[5]; [17]
  Plant response rating, Foxtail, Giant: 30
[5]; [18]
  Foxtail, Giant plant response rating: 50
[6]; [15]
  Lambsquarters plant response rating: 90
[6]; [16]
  Plant response rating, Lambsquarters: 90
[6]; [17]
  Plant response rating, Lambsquarters: 80
[6]; [18]
  Lambsquarters plant response rating: 100
[7]; [15]
  Morningglory plant response rating: 90
[7]; [16]
  Plant response rating, Morningglory: 90
[7]; [17]
  Plant response rating, Morningglory: 80
[7]; [18]
  Morningglory plant response rating: 90
[8]; [15]
  Pigweed plant response rating: 80
[8]; [16]
  Plant response rating, Pigweed: 90
[8]; [17]
  Plant response rating, Pigweed: 80
[8]; [18]
  Pigweed plant response rating: 90
[9]; [15]
  Velvetleaf plant response rating: 70
[9]; [16]
  Plant response rating, Velvetleaf: 90
[9]; [17]
  Plant response rating, Velvetleaf: 80
[9]; [18]
  Velvetleaf plant response rating: 90
[10]; [15]
  Wheat plant response rating: 0
[10]; [16]
  Plant response rating, Wheat: 10
[10]; [17]
  Plant response rating, Wheat: 10
[10]; [18]
  Wheat plant response rating: 40
[11]
  Blackgrass plant response rating: 10
  Plant response rating, Blackgrass: 30
Wild oat (Avena fatua)
  Oat, Wild plant response rating: 0
  Plant response rating, Oat, Wild: 10
[12]
  Plant response rating, Barnyardgrass: 0
[13]
  Plant response rating, Ducksalad: 30
Rice (Oryza sativa)
  Plant response rating, Rice: 0
[14]
  Plant response rating, Sedge, Umbrella: 0
